# From patent US20240261302A1, “METHODS OF TREATING NEURODEGENERATIVE DISEASES OR CONDITIONS” (FloraScience Inc., priority 2023, published 2024)
# Tests used:
# HT22 cells [1] = experiment: Oxytosis Assay (glutamate-induced cell death, MTT); assay type: cell-based, mouse
# Protocol: Oxytosis Assay. HT22 cells were seeded at 3,000 cells/well in 96-well tissue culture plates in DMEM plus 10% FBS and 1% antibiotics. After 24 hr of plating, the cells were pretreated with different concentrations of the test compounds or a vehicle control for 1 hr followed by coincubation with 5 mM glutamate to initiate the cell death cascade. After 16 hr of treatment, cell viability was measured by the 3−(4,5-dimethylthiazol-2-yl)-2,5-diphenyltetrazolium bromide (MTT) assay. Optical absorbance was measured at 570 nm on a SpectraMax M5 microplate reader. Samples were analyzed in eight to sixteen wells per independent experiment (n=8-16). Results were presented as the percentage of the controls with vehicle alone.
# HT22 cells [2] = experiment: Cytotoxicity assessment of CBN in HT22 cells; assay type: cell-based, mouse
# Protocol: FIGS. 2A-2I show CBN inhibits oxytosis/ferroptosis in HT22 cells. Representative micrographs of HT22 cells following treatment for 16 h: (FIG. 2A) 0.2% ethanol treatment as vehicle control, (FIG. 2B) 5 μM CBN treatment, (FIG. 2C) 5 mM glutamate treatment, (FIG. 2D) 50 nM RSL3 treatment, (FIG. 2E) 5 μM CBN pretreatment for 1 h followed by 5 mM glutamate treatment, (FIG. 2F) 5 μM CBN pretreatment for 1 h followed by 50 nM RSL3 treatment. Micrographs show the representative morphological characteristics of the cell cultures under a given condition of 16 experimental replicates. Scale bar=100 μm. (FIG. 2G) Cells were pretreated with varying concentrations of CBN for 1 h followed by 5 mM glutamate treatment and incubation for 16 h. (FIG. 2H) Cells were pretreated with varying concentrations of CBN for 1 h followed by 50 nM RSL3 treatment and incubation for 16 h. The results are presented as the percentage of the neuroprotective activity relative to control (100%) and Glu/RSL3 (0%). The neuroprotection curves were analyzed by four-parameter regression. (FIG. 2I) Cytotoxicity assessment of CBN in HT22 cells. Cells were treated with increasing concentrations of CBN or 0.2% ethanol vehicle and incubated for 16 h. Data are the mean of 8-16 replicates per condition±SD.
# HT22 cells [3] = experiment: Reactive Oxygen Species Measurement (CellROX, MitoSOX); assay type: cell-based, mouse
# Protocol: Reactive Oxygen Species Measurement. HT22 cells were seeded onto 96-well black walled plates at a density of 5,000 cells/well in DMEM supplemented with 10% FBS and 1% antibiotics. After the desired treatments, whole cell ROS and mitochondrial superoxide ROS were detected with CellROX Green reagent (Ex/Em=485/520 nm) and MitoSOX Red reagent (Ex/Em=510/580 nm), respectively. Experiments were performed according to the manufacturer's instructions. Fluorescence was measured on a SpectraMax M5 microplate reader. Data were normalized for total protein/well. Each condition was analyzed in sixteen wells per independent experiment (n=16). Results were presented as the percentage of the controls with vehicle alone. Results were verified by live-cell imaging under a fluorescence microscope.
# HT22 cells [4] = experiment: Total GSH Measurements; assay type: cell-based, mouse; settings: 5 μM
# Protocol: Total GSH Measurements. HT22 cells were seeded onto 35 mm dishes at a density of 70,000 cells/dish in DMEM supplemented with 10% FBS and 1% antibiotics. After the desired treatments, the cells were scraped into ice-cold PBS and the cell pellets collected by centrifugation (500 g). The pellets were resuspended in PBS and 10% sulfosalicylic acid was added at a final concentration of 3.3% to the cells. Proteins were pelleted by centrifugation and the supernatant neutralized. Total GSH was determined by the recycling assay based on the reduction of 5,5-dithiobis(2-nitrobenzoic acid) with glutathione reductase and NADPH and normalized to protein recovered from the acid-precipitated pellet by treatment with 0.2 N NaOH at 37° C. overnight and measured by the BCA protein assay (Pierce, Rockford, IL, USA). Samples were analyzed in four dishes per independent experiment (n=4).
# HT22 mt-GFP cells = experiment: Mitochondrial Network Morphology Analysis; assay type: cell-based, mouse
# Protocol: Mitochondrial Network Morphology Analysis. HT22 mt-GFP cells were seeded at 20,000 cells/well on glass coverslips in 24-well plates in DMEM supplemented with 10% FBS and 1% antibiotics. The following day, the cells were treated with the test compounds for the desired period of time. After rinsing with PBS, the cells on glass coverslips were fixed with 4% paraformaldehyde (pH 7.4) for 10 min at 37° C. After additional PBS rinses, the coverslips were mounted onto glass microslides with Fluoro-Gel (Electron Microscopy Sciences, Cat #17985-10). Z-stack images of fixed cells were acquired on a Zeiss LSM 880 rear port laser scanning confocal and Airyscan FAST microscope with ZEN Black software to trace and render cells in 3D. The mitochondrial network morphology parameters (n=20-25 cells/condition) were scored and analyzed with the MiNA module of ImageJ/Fiji software.
# BV2 microglia = experiment: Mitochondrial Membrane Potential Assay (JC-10) in BV2 cells; assay type: cell-based; settings: 4 hr
# Protocol: BV2 microglial cells were cultured in low glucose DMEM supplemented with GlutaMAX (Invitrogen, Cat #10567014, Carlsbad, CA), 1 mM sodium pyruvate, 10% FBS, and 1% antibiotics including penicillin and streptomycin. Cell cultures were incubated at 37° C. in a fully humidified atmosphere containing 10% CO2.
# Mitochondrial Membrane Potential Assay. Cells seeded at 5,000 cells/well onto 96-well black walled plates were treated with test compounds at the desired concentrations under the culture condition described above. The mitochondrial uncoupler FCCP at 2 μM was used as a reference control. After the desired treatments for 4 hr, the cells were subjected to a JC-10 mitochondrial membrane potential assay according to the manufacturer's instruction. Fluorescence intensities (Ex/Em=490/525 nm, and Ex/Em=540/590 nm) of each well were monitored on a SpectraMax M5 microplate reader. The ratio of fluorescence intensity (590/525 nm) was used to determine the mitochondrial membrane potential (ΔΨm). Decreasing ratios indicate mitochondrial membrane depolarization. Samples were analyzed in eight to sixteen wells per independent experiment (n=8-16). Results were verified by live-cell imaging under a fluorescence microscope.
# [5] = cited from earlier work
compound,measurement,setting,value
"CCCCCc1cc(O)c2c(c1)OC(C)(C)c1ccc(C)cc1-2 [CBN, 6,6,9-Trimethyl-3-pentyl-benzo[c]chromen-1-ol]",glutamate-induced morphological changes,"HT22 cells [1]; 5 μM pretreatment 1 hr, then 5 mM glutamate 16 hr",effectively prevented
same,EC50,"HT22 cells [1]; Mus musculus, HT-22, 16 h, read-out: EC50 against oxytosis/ferroptosis induced by 5 mM glutamate (FIG. 2G)",1890 nM
same,"cellular morphology, compound alone","HT22 cells [2]; 5 μM, 16 hr, microscopic imaging",did not induce visual changes in cellular morphology
same,concentrations at which cytotoxicity was noted,"HT22 cells [2]; HT22 cells, 16 h",≥ 500 µM
same,dose up to which no apparent cytotoxicity was observed,"HT22 cells [2]; HT22 cells, 16 h",≤ 200 µM
same,RSL3-induced ROS production at cellular and mitochondrial levels,"HT22 cells [3]; 50 nM RSL3, 16 hr",suppressed
same,"cellular and mitochondrial ROS (redox status), compound alone","HT22 cells [3]; 5 μM, 16 hr",did not affect the redox status of cells or mitochondria
same,total GSH levels,HT22 cells [4],no impact
same,RSL3-induced mitochondrial fragmentation,HT22 mt-GFP cells; 50 nM RSL3,prevent the mitochondrial fragmentation
same,individual and summed branch lengths of mitochondria,HT22 mt-GFP cells; CBN alone,significantly increased
same,mitochondrial footprints and network branches,HT22 mt-GFP cells; CBN alone,no apparent effects
same,decrease of ΔΨm,BV2 microglia,also observed
same,bioavailability,[5]; after oral or inhaled administration,10 to 40%
same,brain penetrance,[5]; animals and humans,good brain penetrance
same,metabolic stability compared to THC,"[5]; human, in vivo",metabolically more stable
